We go through 4 compounds from DBAASP.

Experiment in all cases: ≥ marks a high value that may be exact or a test limit, other limits are often not marked, values filed in µg/mL are converted to µM
Assay [1] deals with Staphylococcus aureus ATCC 29213.
In assay [2] the test system is Klebsiella pneumoniae ATCC 27736.
The test system of assay [3] is Streptococcus gordonii ATCC 10558.
For assay [4], the system named is Enterococcus faecalis ATCC 29212.
Assay [5] relates to Staphylococcus aureus ATCC 33592.
The subject of assay [6] is Limosilactobacillus fermentum ATCC 9338.
In assay [7] the test system is Streptococcus mutans UA159.
The subject of assay [8] is Bacillus subtilis ATCC 6633.
Assay [9] deals with Streptococcus sanguinis ATCC 10556.
Assay [10] relates to Lacticaseibacillus casei ATCC 393.
For assay [11], the system named is Candida parapsilosis ATCC 22019.
Assay [12] concerns Cryptococcus neoformans.
Assay [13] relates to Pseudomonas aeruginosa ATCC BAA-427.
Assay [14] relates to Actinomyces naeslundii ATCC 12104.
Assay [15] relates to Staphylococcus aureus ATCC 700699.
The test system of assay [16] is Escherichia coli ATCC 9637.
The subject of assay [17] is Staphylococcus aureus ATCC 25923.
Assay [18] deals with Candida albicans ATCC 10231.
The subject of assay [19] is Staphylococcus aureus ATCC 700698.
Assay [20] relates to Actinomyces viscosus ATCC 15987.
The test system of assay [21] is Sporothrix schenckii.
Assay [22] concerns Streptococcus sobrinus ATCC 6715.
Assay [23] has as its system Lactobacillus acidophilus ATCC 4356.
The subject of assay [24] is Staphylococcus aureus ATCC BAA-44.
Assay [25] concerns Salmonella typhimurium.
For assay [26], the system named is Staphylococcus aureus IAM 1011.
Assay [27] has as its system Aeromonas salmonicida NCIMB 1102.
Assay [28] concerns Vibrio parahaemolyticus Vp+1.
Assay [29] relates to Vibrio anguillarum NCIMB 829.
In assay [30] the test system is Bacillus subtilis IAM 1026.
For assay [31], the system named is Escherichia coli JCM 1649.
For assay [32], the system named is Photobacterium damselae subsp. piscicida Sp 9587.
In assay [33] the test system is Shewanella putrefaciens IAM 1509.
The test system of assay [34] is Leuconostoc mesenteroides.
For assay [35], the system named is Staphylococcus aureus.
In assay [36] the test system is Bacillus cereus.
Assay [37] has as its system Escherichia coli.
In assay [38] the test system is Micrococcus luteus.
Assay [39] has as its system Mannheimia haemolytica.
The subject of assay [40] is Batrachochytrium dendrobatidis.
Assay [41] has as its system Streptococcus uberis.
Assay [42] concerns Enterococcus faecalis.
Assay [43] concerns Xanthomonas fragariae Xf349-9A.
Assay [44] relates to Pseudomonas syringae pv. syringae EPS 94.
Assay [45] deals with Pseudomonas syringae pv. actinidiae Psa3700.1.1.
Assay [46] relates to Erwinia amylovora PMV 6076.
Assay [47] concerns Xanthomonas arboricola pv. pruni CFBP 5563.
In assay [48] the test system is Xanthomonas campestris pv. Vesicatoria 2133-2.

In brackets after ≈: the same amount, converted by molar mass.

In the case of `CC[C@H](C)[C@H](NC(=O)[C@H](C)NC(=O)[C@H](CCCCN)NC(=O)CNC(=O)[C@H](C)NC(=O)[C@H](Cc1cnc[nH]1)NC(=O)[C@@H](NC(=O)[C@H](C)NC(=O)CNC(=O)[C@H](CCCCN)NC(=O)[C@@H](NC(=O)[C@H](CC(C)C)NC(=O)[C@H](Cc1c[nH]c2ccccc12)NC(=O)CNC(=O)[C@H](Cc1ccccc1)NC(=O)[C@@H](N)Cc1ccccc1)[C@@H](C)CC)[C@@H](C)CC)C(=O)N[C@@H](Cc1cnc[nH]1)C(=O)NCC(=O)N[C@@H](CC(C)C)C(=O)N[C@H](C(=O)N[C@@H](Cc1cnc[nH]1)C(=O)N[C@@H](CCCN=C(N)N)C(=O)N[C@@H](CCCN=C(N)N)C(=O)N[C@@H](CCCN=C(N)N)C(=O)N[C@@H](Cc1cnc[nH]1)C(=O)O)[C@@H](C)CC` [FFGWLIKGAIHAGKAIHGLIHRRRH], the MIC in [1] worked out at 1.6 µM (≈ 4.63 µg/mL); in [2] it was 3 µM (≈ 8.68 µg/mL); in assay [3], 2.77 µM (≈ 8 µg/mL); in assay [4] it was 3.91 µM (≈ 11.3 µg/mL); in assay [5] it was 1.6 µM (≈ 4.63 µg/mL); in assay [6] it was 1.38 µM (≈ 4 µg/mL). The MIC was 1.38 µM (≈ 4 µg/mL) in assay [7]; 6 µM (≈ 17.4 µg/mL) in assay [8]; 1.96 µM (≈ 5.66 µg/mL) in [9]; 1.38 µM (≈ 4 µg/mL) in assay [10]; 3 µM (≈ 8.68 µg/mL) in assay [11]; 3 µM (≈ 8.68 µg/mL) in assay [12]. The MIC in assay [13] was 6.8 µM (≈ 19.7 µg/mL); in [14], 2.77 µM (≈ 8 µg/mL); in assay [15], 1.6 µM (≈ 4.63 µg/mL); in assay [16], 3.4 µM (≈ 9.83 µg/mL); in assay [17], 3 µM (≈ 8.68 µg/mL); in assay [18], 6.8 µM (≈ 19.7 µg/mL). For the same compound, the MIC in assay [19] came out at 3 µM (≈ 8.68 µg/mL); in assay [20] it was 2.77 µM (≈ 8 µg/mL); in assay [21], 13.6 µM (≈ 39.3 µg/mL); in assay [22], 1.38 µM (≈ 4 µg/mL); in assay [23], 1.96 µM (≈ 5.66 µg/mL); in assay [24], 1.6 µM (≈ 4.63 µg/mL).

Regarding `CC[C@H](C)[C@H](NC(=O)CNC(=O)CNC(=O)[C@@H](NC(=O)[C@@H](N)Cc1ccccc1)[C@@H](C)CC)C(=O)N[C@H](C(=O)N[C@@H](CO)C(=O)N[C@@H](Cc1ccccc1)C(=O)N[C@@H](Cc1ccccc1)C(=O)N[C@@H](CCCCN)C(=O)N[C@@H](CCCN=C(N)N)C(=O)N[C@@H](CC(C)C)C(=O)N[C@@H](Cc1ccccc1)C(=O)O)[C@@H](C)CC` [FIGGIISFFKRLF], the MIC in [25] was no less than 32.4 µM; in assay [26], 2.03 µM (≈ 3.13 µg/mL); in assay [27], no less than 32.4 µM; in assay [28] it was 16.2 µM (≈ 25 µg/mL); in assay [29] it was 8.09 µM (≈ 12.5 µg/mL); in assay [30], 2.03 µM (≈ 3.13 µg/mL). Further, the MIC in [31] is no less than 32.4 µM; in assay [32] it was 4.05 µM (≈ 6.25 µg/mL); in [33], 4.05 µM (≈ 6.25 µg/mL).

In the case of `CSCC[C@H](N=C(O)[C@H](CC(C)C)N=C(O)CN)C(O)=N[C@@H](CO)C(O)=N[C@H](C(O)=N[C@@H](CC(C)C)C(O)=NCC(O)=N[C@@H](Cc1cnc[nH]1)C(O)=N[C@@H](C)C(O)=N[C@H](C(O)=NCC(O)=N[C@@H](CC(=N)O)C(O)=N[C@H](C(O)=N[C@@H](CC(C)C)C(O)=NCC(O)=NCC(O)=N[C@@H](CC(C)C)C(O)=N[C@@H](Cc1ccccc1)C(O)=N[C@@H](CCCCN)C(=O)N1CCC[C@H]1C(O)=N[C@@H](CCCCN)C(=O)O)C(C)C)C(C)C)C(C)C` [GLMSVLGHAVGNVLGGLFKPKS], the MIC in assay [34] turned out to be 11.5 µM (≈ 24 µg/mL); in assay [35] it was 45.8 µM (≈ 96 µg/mL); in [36] it was 5.73 µM (≈ 12 µg/mL); in assay [37] it was 22.9 µM (≈ 48 µg/mL); in [38] it was 0.688 µM (≈ 1.44 µg/mL); in assay [39], 0.367 µM (≈ 0.768 µg/mL). For the same compound, the MIC in assay [40] was no less than 100 µM; in assay [41], 22.9 µM (≈ 48 µg/mL); in assay [42], no less than 68.8 µM.

For the compound `CSCC[C@H](NC(=O)[C@@H](NC(=O)[C@H](Cc1ccc(O)cc1)NC(=O)[C@H](CO)NC(=O)[C@H](CS)NC(=O)[C@@H](N)Cc1ccc(O)cc1)[C@@H](C)O)C(=O)N[C@@H](CCC(=O)O)C(=O)N[C@@H](C)C(N)=O` [YCSYTMEA], the MIC in assay [43], in [44], in [45], in assay [46], in [47] and in [48] was no less than 50 µM each time.

The MIC is the lowest concentration found to suppress growth. Read a low MIC as inhibition by little substance.
